Measured values: US10865216B2, “Tricyclic Gyrase inhibitors” (MERCK SHARP & DOHME CORP., priority 2012, dated 2020)
Converted amounts (≈) assume the structure as drawn.

Legend:
S. aureus ATCC 13709 = assay: MIC, S. aureus ATCC 13709; type: cell-based; conditions: Alamar Blue read after overnight incubation at 35° C.; for MIC: Staphylococcus aureus, ATCC13709, S. aureus, read-out: MIC Sa; for MIC Sa: S. aureus
E. coli ATCC 25922 = assay: MIC, E. coli ATCC 25922; type: cell-based; conditions: Alamar Blue read after overnight incubation at 35° C.; for MIC: Escherichia coli, ATCC25922, E. coli, read-out: MIC Ec; for MIC Ec: E. coli

MIC (S. aureus ATCC 13709) [µg/mL]	MIC (E. coli ATCC 25922) [µg/mL]	MIC Sa (S. aureus ATCC 13709) [µg/mL]	MIC Ec (E. coli ATCC 25922) [µg/mL]	Structure (SMILES)
≤ 0.5	8 (≈ 19.1 µM)	–	–	CNc1cccc2c1[nH]c1nc(Oc3cncnc3)cc(N3C/C(=N\OC)[C@@H](N)C3)c12 [Compound 3.62]
≤ 0.5	8 (≈ 20.3 µM)	–	–	CNc1cccc2c1[nH]c1nc(Oc3cncnc3)cc(N3CC(F)[C@@H](N)C3)c12 (stereo partly drawn) [Compound 3.63]
16 (≈ 41.1 µM)	64 (≈ 164 µM)	–	–	CNc1cccc2c1[nH]c1nc(Oc3cncnc3)cc(N3CCC(N)CC3)c12 [Compound 3.64]
8 (≈ 19.9 µM)	64 (≈ 159 µM)	–	–	CNc1cccc2c1[nH]c1nc(Oc3cncnc3)cc(N3CCC4(CNC4)C3)c12 [Compound 3.65]
8 (≈ 19.1 µM)	> 32	–	–	CNc1cccc2c1[nH]c1nc(Oc3cncc(F)c3)cc(N3CCC4(CNC4)C3)c12 [Compound 3.66]
16 (≈ 39.9 µM)	64 (≈ 159 µM)	–	–	CNc1cccc2c1[nH]c1nc(Oc3cncnc3)cc(N3CC4(CCNC4)C3)c12 [Compound 3.67]
–	–	≤0.5	≤0.5	CNc1cc(F)cc2c1[nH]c1nc(Oc3cncnc3)nc(N3CC4C(N)C4C3)c12 (stereo not drawn) [Compound 4.001]
–	–	≤0.5	≤0.5	CNc1cc(F)cc2c1[nH]c1nc(Oc3cncnc3)nc(N3CC(N)C4(CC4)C3)c12 (stereo not drawn) [Compound 4.002]
–	–	≤0.5	≤0.5	CNc1cc(F)cc2c1[nH]c1nc(Oc3cncnc3)nc(N3CCC4(CC4N)C3)c12 (stereo not drawn) [Compound 4.003]
–	–	≤0.5	2 (≈ 4.76 µM)	CNc1cc(F)cc2c1[nH]c1nc(Oc3cncnc3)nc(N3CC4C(CN)C4C3)c12 (stereo not drawn) [Compound 4.004]
–	–	≤0.5	≤0.5	CNc1cc(F)cc2c1[nH]c1nc(Oc3cncnc3)nc(N3CC4CC4(N)C3)c12 (stereo not drawn) [Compound 4.005]
–	–	≤0.5	≤0.5	CNc1cc(F)cc2c1[nH]c1nc(Oc3cncnc3)nc(N3CC4C(N)C4C3)c12 (stereo not drawn) [Compound 4.010]
–	–	≤0.5	1 (≈ 2.3 µM)	CNc1cc(F)cc2c1[nH]c1nc(Oc3cncnc3)nc(N3CC4CCC(N)C4C3)c12 (stereo not drawn) [Compound 4.016]
–	–	≤0.5	≤0.5	CNc1cc(F)cc2c1[nH]c1nc(Oc3cncnc3)nc(N3CCC(C4(N)CC4)C3)c12 (stereo not drawn) [Compound 4.017]
–	–	≤0.5	≤0.5	CNc1cc(F)cc2c1[nH]c1nc(Oc3cncnc3)nc(N3CC4CCNC4C3)c12 (stereo not drawn) [Compound 4.020]
–	–	≤0.5	1 (≈ 2.37 µM)	CNc1cc(F)cc2c1[nH]c1nc(Oc3cncnc3)nc(N3CC(C)C(CN)C3)c12 (stereo not drawn) [Compound 4.023]
–	–	≤0.5	2 (≈ 4.73 µM)	CNc1cc(F)cc2c1[nH]c1nc(Oc3cncnc3)nc(N3CCCC(C)(N)C3)c12 (stereo not drawn) [Compound 4.024]
–	–	≤0.5	2 (≈ 4.6 µM)	CNc1cc(F)cc2c1[nH]c1nc(Oc3cncnc3)nc(N3C4CCC3CC(N)C4)c12 (stereo not drawn) [Compound 4.025]
–	–	≤0.5	≤0.5	CNc1cc(F)cc2c1[nH]c1nc(Oc3cncnc3)nc(N3CC4CCC(N)C4C3)c12 (stereo not drawn) [Compound 4.026]
–	–	≤0.5	1 (≈ 2.3 µM)	CNc1cc(F)cc2c1[nH]c1nc(Oc3cncnc3)nc(N3CCC(C4(N)CC4)C3)c12 (stereo not drawn) [Compound 4.027]
–	–	≤0.5	≤0.5	CNc1cc(F)cc2c1[nH]c1nc(Oc3cncnc3)nc(N3CC4C[C@@H](N)C4C3)c12 (stereo partly drawn) [Compound 4.028]
–	–	4 (≈ 9.79 µM)	16 (≈ 39.2 µM)	CNc1cc(F)cc2c1[nH]c1nc(Oc3cncnc3)nc(N3CC(N)CC3C)c12 (stereo not drawn) [Compound 4.029]
–	–	2 (≈ 6.45 µM)	>16	CNc1cc(F)cc2c1[nH]c1nc(Oc3cncnc3)ncc12 [Compound 4.031]
–	–	≤0.5	4 (≈ 9.21 µM)	CNc1cc(F)cc2c1[nH]c1nc(Oc3cncnc3)nc(N3CCC4(CCNC4)C3)c12 (stereo not drawn) [Compound 4.033]
–	–	≤0.5	≤0.5	CNc1cc(F)cc2c1[nH]c1nc(Oc3cnc4cccnc4c3)nc(N3CC4CC4(N)C3)c12 (stereo not drawn) [Compound 4.036]
–	–	≤0.5	≤0.5	CNc1cc(F)cc2c1[nH]c1nc(Oc3cnc4cccnc4c3)nc(N3CC4(CC4N)C3)c12 (stereo not drawn) [Compound 4.042]
–	–	≤0.5	≤0.5	CNc1cc(F)cc2c1[nH]c1nc(Oc3cnc4cccnc4c3)nc(N3CC4CCNC4C3)c12 (stereo not drawn) [Compound 4.044]

MIC (S. aureus ATCC 13709) [µg/mL]	MIC (E. coli ATCC 25922) [µg/mL]	MIC Sa (S. aureus ATCC 13709) [µg/mL]	MIC Ec (E. coli ATCC 25922) [µg/mL]	Structure (SMILES)
–	–	≤0.5	1 (≈ 2.06 µM)	CNc1cc(F)cc2c1[nH]c1nc(Oc3cnc4cccnc4c3)nc(N3CC4CC(N)CC4C3)c12 (stereo not drawn) [Compound 4.046]
–	–	≤0.5	1 (≈ 2.06 µM)	CNc1cc(F)cc2c1[nH]c1nc(Oc3cnc4cccnc4c3)nc(N3CC4NCCOC4C3)c12 (stereo not drawn) [Compound 4.048]
–	–	≤0.5	≤0.5	CNc1cc(F)cc2c1[nH]c1nc(Oc3cncc(C#N)c3)nc(N3CC4C(N)C4C3)c12 (stereo not drawn) [Compound 4.050]
–	–	≤0.5	2 (≈ 4.5 µM)	CNc1cc(F)cc2c1[nH]c1nc(Oc3cncc(C#N)c3)nc(N3CC(N)C4(CC4)C3)c12 (stereo not drawn) [Compound 4.051]
–	–	≤0.5	≤0.5	CNc1cc(F)cc2c1[nH]c1nc(Oc3cncc(C#N)c3)nc(N3CCC4(CC4N)C3)c12 (stereo not drawn) [Compound 4.052]
–	–	≤0.5	≤0.5	CNc1cc(F)cc2c1[nH]c1nc(Oc3cncc(C#N)c3)nc(N3CC4CC(N)C4C3)c12 (stereo not drawn) [Compound 4.053]
–	–	≤0.5	≤0.5	CNc1cc(F)cc2c1[nH]c1nc(Oc3cncc(C#N)c3)nc(N3CC4(CCC4N)C3)c12 (stereo not drawn) [Compound 4.054]
–	–	≤0.5	≤0.5	CNc1cc(F)cc2c1[nH]c1nc(Oc3cncc(F)c3)nc(N3CC4C(N)C4C3)c12 (stereo not drawn) [Compound 4.055]
–	–	≤0.5	≤0.5	CNc1cc(F)cc2c1[nH]c1nc(Oc3cncc(F)c3)nc(N3CC(N)C4(CC4)C3)c12 (stereo not drawn) [Compound 4.056]
–	–	≤0.5	≤0.5	CNc1cc(F)cc2c1[nH]c1nc(Oc3cncc(F)c3)nc(N3CC(N)C4(CC4)C3)c12 (stereo not drawn) [Compound 4.057]
–	–	≤0.5	≤0.5	CNc1cc(F)cc2c1[nH]c1nc(Oc3cncc(F)c3)nc(N3CC4(CCC4N)C3)c12 (stereo not drawn) [Compound 4.061]
–	–	≤0.5	≤0.5	CNc1cc(F)cc2c1[nH]c1nc(Oc3cncc(F)c3)nc(N3CCC4(CC4N)C3)c12 (stereo not drawn) [Compound 4.062]
–	–	≤0.5	≤0.5	CNc1cc(F)cc2c1[nH]c1nc(Oc3cnc(C)nc3)nc(N3CC4CNC4C3)c12 (stereo not drawn) [Compound 4.067]
–	–	≤0.5	2 (≈ 4.58 µM)	CNc1cc(F)cc2c1[nH]c1nc(Oc3cnc(C)nc3)nc(N3CCCC(N)CC3)c12 (stereo not drawn) [Compound 4.071]
–	–	≤0.5	8 (≈ 16.8 µM)	CNc1cc(F)cc2c1[nH]c1nc(Oc3cnc(C)nc3)nc(N3CC4C(C3)C4NC(=O)CN)c12 (stereo not drawn) [Compound 4.078]
–	–	≤0.5	1 (≈ 2.3 µM)	CNc1cc(F)cc2c1[nH]c1nc(Oc3cnc(C)nc3)nc(N3CC(C4(N)CC4)C3)c12 [Compound 4.080]
–	–	≤0.5	≤0.5	CNc1cc(F)cc2c1[nH]c1nc(Oc3cnc(C)nc3)nc(N3CCC(C4(N)CC4)C3)c12 (stereo not drawn) [Compound 4.083]
–	–	≤0.5	1 (≈ 2.29 µM)	CNc1cc(F)cc2c1[nH]c1nc(Oc3cnc(C)nc3)nc(N3CC(C)C(CN)C3)c12 (stereo not drawn) [Compound 4.087]
–	–	≤0.5	1 (≈ 2.29 µM)	CNc1cc(F)cc2c1[nH]c1nc(Oc3cnc(C)nc3)nc(N3CCCC(C)(N)C3)c12 (stereo not drawn) [Compound 4.088]
–	–	≤0.5	1 (≈ 2.23 µM)	CNc1cc(F)cc2c1[nH]c1nc(Oc3cnc(C)nc3)nc(N3C4CCC3CC(N)C4)c12 (stereo not drawn) [Compound 4.091]
–	–	≤0.5	≤0.5	CNc1cc(F)cc2c1[nH]c1nc(Oc3cnc(C)nc3)nc(N3CC4CCNC4C3)c12 (stereo not drawn) [Compound 4.094]
–	–	≤0.5	2 (≈ 4.2 µM)	CNc1cc(F)cc2c1[nH]c1nc(Oc3cnc(C)nc3)nc(N3C[C@@H]4C(N)CC(C)(C)[C@@H]4C3)c12 (stereo partly drawn) [Compound 4.097]
–	–	≤0.5	1 (≈ 2.3 µM)	CNc1cc(F)cc2c1[nH]c1nc(Oc3cnc(C)nc3)nc(N3CC4CC4(CN)C3)c12 (stereo not drawn) [Compound 4.098]
–	–	≤0.5	4 (≈ 8.65 µM)	CNc1cc(F)cc2c1[nH]c1nc(Oc3cnc(C)nc3)nc(N3CC4CCC(N)C4(C)C3)c12 (stereo not drawn) [Compound 4.099]
–	–	≤0.5	≤0.5	CNc1cc(F)cc2c1[nH]c1nc(Oc3cnc(C)nc3)nc(N3CC4(CCC4N)C3)c12 (stereo not drawn) [Compound 4.100]
–	–	≤0.5	≤0.5	CNc1cc(F)cc2c1[nH]c1nc(Oc3cnc(C)nc3)nc(N3CC4CC(N)CC4C3)c12 (stereo not drawn) [Compound 4.104]
–	–	≤0.5	2 (≈ 4.6 µM)	CNc1cc(F)cc2c1[nH]c1nc(Oc3cnc(C)nc3)nc(N3CC4C(CN)C4C3)c12 (stereo not drawn) [Compound 4.106]

Structure (SMILES)	MIC (S. aureus ATCC 13709) [µg/mL]	MIC (E. coli ATCC 25922) [µg/mL]	MIC Sa (S. aureus ATCC 13709) [µg/mL]	MIC Ec (E. coli ATCC 25922) [µg/mL]
CNc1cc(F)cc2c1[nH]c1nc(Oc3cnc4cccnc4c3)nc(N3CC4C(N)C4C3)c12 (stereo not drawn) [Compound 4.037]	–	–	≤0.5	≤0.5
CNc1cc(F)cc2c1[nH]c1nc(Oc3cnc(C)nc3)nc(N3CC(N)C4(CC4)C3)c12 (stereo not drawn) [Compound 4.065]	–	–	≤0.5	≤0.5
CNc1cc(F)cc2c1[nH]c1nc(Oc3cnc(C)nc3)nc(N3CC(N)C4(CC4)C3)c12 (stereo not drawn) [Compound 4.068]	–	–	≤0.5	≤0.5
